{"source": "PubChem BioAssay AID1259407", "about": "(Chemical Carcinogenesis Research Information System (CCRIS), 2018)", "tested_on": "CCRIS mutagenicity, Ames/micronucleus/aberration tests", "assay": "CCRIS mutagenicity studies", "key": {"[1]": {"conditions": "Test System: AMES SALMONELLA TYPHIMURIUM, Strain/Indicator: TA98, Metabolic Activation: NONE, Method: PREINCUBATION"}, "[2]": {"conditions": "Test System: AMES SALMONELLA TYPHIMURIUM, Strain/Indicator: TA100, Metabolic Activation: NONE, Method: PREINCUBATION"}, "[3]": {"conditions": "Test System: AMES SALMONELLA TYPHIMURIUM, Strain/Indicator: TA1535, Metabolic Activation: NONE, Method: PREINCUBATION"}, "[4]": {"conditions": "Test System: AMES SALMONELLA TYPHIMURIUM, Strain/Indicator: TA98, Metabolic Activation: NONE, Method: STANDARD PLATE"}, "[5]": {"conditions": "Test System: AMES SALMONELLA TYPHIMURIUM, Strain/Indicator: TA98, Metabolic Activation: RAT, LIVER, S-9, AROCLOR 1254, Method: STANDARD PLATE"}, "[6]": {"conditions": "Test System: AMES SALMONELLA TYPHIMURIUM, Strain/Indicator: TA100, Metabolic Activation: NONE, Method: STANDARD PLATE"}}, "note": "Activity calls are given as the source filed them. The rule behind the calls is not given here.", "data": [{"compound": "CCC(O)CN", "note": "(stereo not drawn)", "values": [{"measurement": "mutagenic call", "setting": "Test System: AMES SALMONELLA TYPHIMURIUM, Strain/Indicator: TA97, Metabolic Activation: HAMSTER, LIVER, S-9, AROCLOR 1254 (10 OR 30%), Method: PREINCUBATION", "result": "inactive; negative"}, {"measurement": "mutagenic call", "setting": "Test System: AMES SALMONELLA TYPHIMURIUM, Strain/Indicator: TA97, Metabolic Activation: NONE, Method: PREINCUBATION", "result": "inactive; negative"}, {"measurement": "mutagenic call", "setting": "Test System: AMES SALMONELLA TYPHIMURIUM, Strain/Indicator: TA97, Metabolic Activation: RAT, LIVER, S-9, AROCLOR 1254 (10 OR 30%), Method: PREINCUBATION", "result": "inactive; negative"}, {"measurement": "mutagenic call", "setting": "Test System: AMES SALMONELLA TYPHIMURIUM, Strain/Indicator: TA98, Metabolic Activation: HAMSTER, LIVER, S-9, AROCLOR 1254 (10 OR 30%), Method: PREINCUBATION", "result": "inactive; negative"}, {"measurement": "mutagenic call", "setting": "[1]", "result": "inactive; negative"}, {"measurement": "mutagenic call", "setting": "Test System: AMES SALMONELLA TYPHIMURIUM, Strain/Indicator: TA98, Metabolic Activation: RAT, LIVER, S-9, AROCLOR 1254 (10 OR 30%), Method: PREINCUBATION", "result": "inactive; negative"}, {"measurement": "mutagenic call", "setting": "Test System: AMES SALMONELLA TYPHIMURIUM, Strain/Indicator: TA100, Metabolic Activation: HAMSTER, LIVER, S-9, AROCLOR 1254 (10 OR 30%), Method: PREINCUBATION", "result": "inactive; negative"}, {"measurement": "mutagenic call", "setting": "[2]", "result": "inactive; negative"}, {"measurement": "mutagenic call", "setting": "Test System: AMES SALMONELLA TYPHIMURIUM, Strain/Indicator: TA100, Metabolic Activation: RAT, LIVER, S-9, AROCLOR 1254 (10 OR 30%), Method: PREINCUBATION", "result": "inactive; negative"}, {"measurement": "mutagenic call", "setting": "Test System: AMES SALMONELLA TYPHIMURIUM, Strain/Indicator: TA1535, Metabolic Activation: HAMSTER, LIVER, S-9, AROCLOR 1254 (10 OR 30%), Method: PREINCUBATION", "result": "inactive; negative"}, {"measurement": "mutagenic call", "setting": "[3]", "result": "inactive; negative"}, {"measurement": "mutagenic call", "setting": "Test System: AMES SALMONELLA TYPHIMURIUM, Strain/Indicator: TA1535, Metabolic Activation: RAT, LIVER, S-9, AROCLOR 1254 (10 OR 30%), Method: PREINCUBATION", "result": "inactive; negative"}]}, {"compound": "COC(=O)CCN(N=O)C(N)=O", "values": [{"measurement": "mutagenic call", "setting": "Test System: E. COLI B, Strain/Indicator: H/R30R, Metabolic Activation: NONE", "result": "active; positive"}, {"measurement": "mutagenic call", "setting": "Test System: E. COLI B, Strain/Indicator: HS30R, Metabolic Activation: NONE", "result": "active; positive"}]}, {"compound": "O=[N+]([O-])c1ccc2c3ccccc3c3c([N+](=O)[O-])ccc4ccc1c2c43", "values": [{"measurement": "mutagenic call", "setting": "[4]", "result": "active; positive"}, {"measurement": "mutagenic call", "setting": "[5]", "result": "active; positive"}]}, {"compound": "C=C(C)C(=O)O", "values": [{"measurement": "mutagenic call", "setting": "Test System: AMES SALMONELLA TYPHIMURIUM, Strain/Indicator: TA98, Metabolic Activation: HAMSTER, LIVER, S-9, AROCLOR 1254, Method: PREINCUBATION", "result": "inactive; negative"}, {"measurement": "mutagenic call", "setting": "[1]", "result": "inactive; negative"}, {"measurement": "mutagenic call", "setting": "Test System: AMES SALMONELLA TYPHIMURIUM, Strain/Indicator: TA98, Metabolic Activation: RAT, LIVER, S-9, AROCLOR 1254, Method: PREINCUBATION", "result": "inactive; negative"}, {"measurement": "mutagenic call", "setting": "Test System: AMES SALMONELLA TYPHIMURIUM, Strain/Indicator: TA100, Metabolic Activation: HAMSTER, LIVER, S-9, AROCLOR 1254, Method: PREINCUBATION", "result": "inactive; negative"}, {"measurement": "mutagenic call", "setting": "[2]", "result": "inactive; negative"}, {"measurement": "mutagenic call", "setting": "Test System: AMES SALMONELLA TYPHIMURIUM, Strain/Indicator: TA100, Metabolic Activation: RAT, LIVER, S-9, AROCLOR 1254, Method: PREINCUBATION", "result": "inactive; negative"}, {"measurement": "mutagenic call", "setting": "Test System: AMES SALMONELLA TYPHIMURIUM, Strain/Indicator: TA1535, Metabolic Activation: HAMSTER, LIVER, S-9, AROCLOR 1254, Method: PREINCUBATION", "result": "inactive; negative"}, {"measurement": "mutagenic call", "setting": "[3]", "result": "inactive; negative"}, {"measurement": "mutagenic call", "setting": "Test System: AMES SALMONELLA TYPHIMURIUM, Strain/Indicator: TA1535, Metabolic Activation: RAT, LIVER, S-9, AROCLOR 1254, Method: PREINCUBATION", "result": "inactive; negative"}, {"measurement": "mutagenic call", "setting": "Test System: AMES SALMONELLA TYPHIMURIUM, Strain/Indicator: TA1537, Metabolic Activation: HAMSTER, LIVER, S-9, AROCLOR 1254, Method: PREINCUBATION", "result": "inactive; negative"}, {"measurement": "mutagenic call", "setting": "Test System: AMES SALMONELLA TYPHIMURIUM, Strain/Indicator: TA1537, Metabolic Activation: NONE, Method: PREINCUBATION", "result": "inactive; negative"}, {"measurement": "mutagenic call", "setting": "Test System: AMES SALMONELLA TYPHIMURIUM, Strain/Indicator: TA1537, Metabolic Activation: RAT, LIVER, S-9, AROCLOR 1254, Method: PREINCUBATION", "result": "inactive; negative"}]}, {"compound": "CNC(=O)/C=C(\\C)OP(=O)(OC)OC", "values": [{"measurement": "mutagenic call", "setting": "End Point: In vitro chromosomal aberrations, Test System: Human lymphocytes, Metabolic Activation: None", "result": "active; positive (structural changes and ploidy)"}, {"measurement": "mutagenic call", "setting": "Test System: AMES SALMONELLA TYPHIMURIUM, Strain/Indicator: TA97A, Metabolic Activation: NONE, Method: STANDARD PLATE", "result": "inactive; negative"}, {"measurement": "mutagenic call", "setting": "Test System: AMES SALMONELLA TYPHIMURIUM, Strain/Indicator: TA97A, Metabolic Activation: PLANT, HOMOGENATE, S-14, Method: STANDARD PLATE", "result": "inactive; negative"}, {"measurement": "mutagenic call", "setting": "Test System: AMES SALMONELLA TYPHIMURIUM, Strain/Indicator: TA97A, Metabolic Activation: S-9, Method: STANDARD PLATE", "result": "inactive; negative"}, {"measurement": "mutagenic call", "setting": "[4]", "result": "inactive; negative"}, {"measurement": "mutagenic call", "setting": "Test System: AMES SALMONELLA TYPHIMURIUM, Strain/Indicator: TA98, Metabolic Activation: PLANT, HOMOGENATE, S-14, Method: STANDARD PLATE", "result": "inactive; negative"}, {"measurement": "mutagenic call", "setting": "Test System: AMES SALMONELLA TYPHIMURIUM, Strain/Indicator: TA98, Metabolic Activation: S-9, Method: STANDARD PLATE", "result": "inactive; negative"}, {"measurement": "mutagenic call", "setting": "[6]", "result": "inactive; negative"}, {"measurement": "mutagenic call", "setting": "Test System: AMES SALMONELLA TYPHIMURIUM, Strain/Indicator: TA100, Metabolic Activation: PLANT, HOMOGENATE, S-14, Method: STANDARD PLATE", "result": "inactive; negative"}, {"measurement": "mutagenic call", "setting": "Test System: AMES SALMONELLA TYPHIMURIUM, Strain/Indicator: TA100, Metabolic Activation: S-9, Method: STANDARD PLATE", "result": "inactive; negative"}, {"measurement": "mutagenic call", "setting": "Test System: AMES SALMONELLA TYPHIMURIUM, Strain/Indicator: TA1535, Metabolic Activation: PLANT, HOMOGENATE, S-14, Method: STANDARD PLATE", "result": "inactive; negative"}, {"measurement": "mutagenic call", "setting": "Test System: AMES SALMONELLA TYPHIMURIUM, Strain/Indicator: TA1535, Metabolic Activation: S-9, Method: STANDARD PLATE", "result": "inactive; negative"}, {"measurement": "mutagenic call", "setting": "Test System: UDS HUMAN FIBROBLASTS, Strain/Indicator: THY INCORP (NON-S-PHASE), Metabolic Activation: NONE, Method: LIQUID SCINTILLATION COUNTING", "result": "active; positive"}]}, {"compound": "O=C(/C=C/c1ccc(Oc2ccccc2)cc1)c1ccccc1", "values": [{"measurement": "mutagenic call", "setting": "[4]", "result": "inactive; negative"}, {"measurement": "mutagenic call", "setting": "[5]", "result": "inactive; negative"}, {"measurement": "mutagenic call", "setting": "[6]", "result": "inactive; negative"}, {"measurement": "mutagenic call", "setting": "Test System: AMES SALMONELLA TYPHIMURIUM, Strain/Indicator: TA100, Metabolic Activation: RAT, LIVER, S-9, AROCLOR 1254, Method: STANDARD PLATE", "result": "inactive; negative"}]}, {"compound": "Cc1ncc(CNC(=O)N(CCCl)N=O)c(N)n1", "values": [{"measurement": "mutagenic call", "setting": "[4]", "result": "active; positive"}, {"measurement": "mutagenic call", "setting": "[6]", "result": "active; positive"}, {"measurement": "mutagenic call", "setting": "Test System: E. COLI, Strain/Indicator: WP2 (HCR), Metabolic Activation: NONE, Method: STANDARD PLATE", "result": "active; positive"}]}]}
